These results are taken from patent US8252522B2, “Species detection methods and systems” (The Regents of the University of California, priority 2007, dated 2012).

In test [1] the test system is bacterial spores vs vegetative bacteria. Conditions: microfluidic device, detection about few seconds after mixing. The method, then:
(§1) A solution of a benzothiazole dye, THIA, was used (FIG. 1a), in a continuous-flow microfluidic device for detection of bacterial species, as described for a terbium (III) different emission assay.
(§2) For the steady-state experiments the dye is mixed with the samples and allowed to incubate for five minutes. In the microfluidic device, however, the dye is mixed with the bacterial sample and carried to the area for emission detection in about few seconds after the mixing.

The subject of test [2] is bacterial spores. Conditions: steady-state, incubated for five minutes. How it is done:
as §1, §2

Test [3] relates to different bacteria (E. coli and two bacilli).
Protocol: Kinetics of fluorescence enhancement of 64 μM THIA in the presence of different bacteria (10^6 cell/mL) in TRIS buffer, pH=8.5 (λex=420 nm, λem=470 nm). The time constants, τ, are inversely proportional to the rate constants, k=1/τ. The biexponential data fits assume pseudo-first-order processes. At about 50 s into the data acquisition, the bacteria are injected and into a stirred solution of the dye.
To simplify the kinetic analysis, the assays can be conducted under two types of extreme conditions that will assure that the first step, k1, can be approximated to pseudo-first-order process: (1) the dye is in excess to the binding sites on the bacterial surface; or (2) the binding sites on the bacterial surface are in excess to the dye. Under such conditions, the kinetics of fluorescence enhancement should manifest bi- (or multi-) exponential rises:
[formula] where FM is the maximum fluorescence intensity (the saturation level on the curves); dt is the injection time; Fi are the pre-exponential coefficients; and ti are the time constants for the various processes: τi=1/ki. […]
The samples are illuminated at a region where the staining dye absorbs and the emission is monitored (the fluorescence intensity is recorded every second) at the wavelength maximum of the fluorescence spectrum of the dye (FIG. 2). […] This plateau emission maximum is what is measured with the regular staining procedures. […]
In test [4] the test system is bacterial spores. To be noted: within the duration of the mixing.

In the case of `CCN1/C(=C/c2sc3ccccc3[n+]2CC)Sc2ccccc21.[I-]` [THIA, 3,3′-Diethylthiacyanine iodide], in test [1], the “signal from bacterial spores relative to signal from vegetative bacteria” value is given as “about 13 times”. The “increase in emission intensity in the presence of bacterial spores” value in the test on bacterial spores [2] is “about an order of magnitude increase”. The response to staining entry in test [3] (all three species) is “positive response”. Further, in test [3] (vegetative bacteria), the “duration of the emission intensity increase after initial mixing” value is reported as “continues to increase for several minutes”. In addition, the “time of emission enhancement by bacterial spores” value in the test on bacterial spores [4] is “within a second or less”.
